According to patent publication US20080009418A1, “Selective Inhibitors” (Alchemia LTD., priority 2004, published 2008):

Columns and labels:
[1] = biological target: T1, Human μ-opioid (MOP) (Homo sapiens, UniProt P35372); assay: Radioligand binding, human μ-opioid (MOP) membranes, FlashPlate, [3H]-Naloxone; details: compound at 10 μM; for A7 radioligand binding inhibition: human μ-opioid (MOP) membranes
T1 construct: purchased Perkin Elmer Biosignal
How it was run: (§1)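 Cloned human receptor membranes were coated onto FlashPlate wells and incubated with radioligand and compound (added from a 0.5 mM DMSO daughter plate) for 1 hour at room temperature in the dark. Scintillation counting gave percent inhibition, with DMSO defining total and reference ligand defining non-specific binding.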

[2] = biological target: T2, Human κ-Opioid (KOP) (Homo sapiens, UniProt P41145); assay: Radioligand binding, human κ-opioid (KOP) membranes, filtration, [3H]-Diprenorphine; details: compound at 10 μM; for A2 radioligand binding inhibition: human κ-opioid (KOP) membranes
T2 construct: purchased Perkin Elmer Biosignal
T2 sequence (P41145 whole entry): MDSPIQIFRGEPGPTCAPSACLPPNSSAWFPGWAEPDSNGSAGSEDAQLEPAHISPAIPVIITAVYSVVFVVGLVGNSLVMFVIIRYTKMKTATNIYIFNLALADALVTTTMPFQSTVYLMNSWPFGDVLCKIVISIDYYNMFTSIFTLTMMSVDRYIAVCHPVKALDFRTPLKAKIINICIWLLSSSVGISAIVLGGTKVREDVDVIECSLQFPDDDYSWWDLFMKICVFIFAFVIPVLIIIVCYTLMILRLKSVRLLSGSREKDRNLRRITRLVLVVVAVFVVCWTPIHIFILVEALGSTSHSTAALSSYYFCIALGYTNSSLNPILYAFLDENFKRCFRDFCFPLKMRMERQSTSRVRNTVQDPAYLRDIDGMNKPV
How it was run: (§2)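 Percent inhibition of radioligand binding measured on recombinant human membranes: NK1 with [125I]-Substance P, KOP with [3H]-Diprenorphine. Incubation 1 h at room temperature, then harvest onto 0.3% PEI-soaked filters, cold Tris-HCl pH 7.4 washes and scintillation counting; non-specific binding from reference ligand wells.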

[3] = biological target: T3, Mouse urotensin (mUR2) (Mus musculus, UniProt Q8VIH9); assay: Radioligand binding, mouse urotensin mUR2 membranes, FlashPlate, [125I]-Urotensin II; details: compound at 10 μM; for A11 radioligand binding inhibition: mouse urotensin mUR2 membranes
T3 construct: purchased Perkin Elmer Biosignal
T3 sequence (Q8VIH9 1-385): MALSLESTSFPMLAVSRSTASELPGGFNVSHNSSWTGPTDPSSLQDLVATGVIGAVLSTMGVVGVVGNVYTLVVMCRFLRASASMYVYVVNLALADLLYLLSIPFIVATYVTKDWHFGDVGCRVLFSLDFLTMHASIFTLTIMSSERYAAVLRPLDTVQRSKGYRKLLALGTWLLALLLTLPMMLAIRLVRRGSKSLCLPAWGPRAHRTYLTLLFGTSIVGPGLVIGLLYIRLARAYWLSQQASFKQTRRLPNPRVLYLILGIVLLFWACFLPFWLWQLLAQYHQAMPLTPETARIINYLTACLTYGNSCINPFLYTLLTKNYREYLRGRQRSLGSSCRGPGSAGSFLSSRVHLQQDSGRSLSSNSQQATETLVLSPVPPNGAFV
How it was run: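 Cloned mouse urotensin (mUR2) receptor membranes from Perkin Elmer Biosignal were immobilized in FlashPlate microplates using a proprietary coating. Each well got 19.5 μl buffer, then 0.5 μl of DMSO, reference ligand, or compound. Adding 5 μl of [125I]-Urotensin II, diluted to 5× final concentration in binding buffer, started binding. Plates were sealed with TopSeal-A and incubated 1 hour at room temperature in the dark. Wells were counted for 30 seconds each on a TopCount after a 60-second delay, and percentage inhibition was calculated.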

[4] = biological target: T4, Human Melanocortin (MC3) (Homo sapiens, UniProt P41968); assay: Radioligand binding, human melanocortin MC3 membranes, FlashPlate, [125I]-NDP-αMSH; details: compound at 10 μM; for A3 radioligand binding inhibition: human melanocortin MC3 membranes
T4 construct: purchased Perkin Elmer Biosignal
T4 sequence (P41968 whole entry): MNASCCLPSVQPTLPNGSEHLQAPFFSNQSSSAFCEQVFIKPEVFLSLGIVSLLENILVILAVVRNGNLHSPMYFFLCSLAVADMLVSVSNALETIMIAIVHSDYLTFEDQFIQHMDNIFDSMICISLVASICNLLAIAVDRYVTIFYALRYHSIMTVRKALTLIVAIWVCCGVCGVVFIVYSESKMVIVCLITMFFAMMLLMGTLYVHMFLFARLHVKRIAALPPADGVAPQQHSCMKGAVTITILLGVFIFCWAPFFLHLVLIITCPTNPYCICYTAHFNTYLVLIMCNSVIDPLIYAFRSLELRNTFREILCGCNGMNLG
How it was run: as §1

[5] = biological target: T5, Human opioid (ORL1) (Homo sapiens, UniProt P41146); assay: Radioligand binding, human opioid ORL1 membranes, FlashPlate, [125I]-Nociceptin; details: compound at 10 μM; for A10 radioligand binding inhibition: human ORL1 membranes
T5 construct: purchased Perkin Elmer Biosignal
T5 sequence (P41146 whole entry): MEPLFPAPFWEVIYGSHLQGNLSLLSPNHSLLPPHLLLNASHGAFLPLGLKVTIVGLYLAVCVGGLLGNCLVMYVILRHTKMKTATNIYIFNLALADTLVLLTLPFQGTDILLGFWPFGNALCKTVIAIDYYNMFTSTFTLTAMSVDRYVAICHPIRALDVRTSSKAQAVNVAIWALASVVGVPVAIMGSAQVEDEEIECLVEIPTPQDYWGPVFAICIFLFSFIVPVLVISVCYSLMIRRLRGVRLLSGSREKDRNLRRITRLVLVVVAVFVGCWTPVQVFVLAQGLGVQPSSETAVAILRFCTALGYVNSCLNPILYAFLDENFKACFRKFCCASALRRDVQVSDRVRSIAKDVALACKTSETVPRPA
How it was run: as §1

[6] = biological target: T6, Human melanocortin (MC5) (Homo sapiens, UniProt P33032); assay: Radioligand binding, human melanocortin MC5 membranes, FlashPlate, [125I]-NDP-αMSH; details: compound at 10 μM; for A5 radioligand binding inhibition: human melanocortin MC5 membranes
T6 construct: purchased Perkin Elmer Biosignal
T6 sequence (P33032 whole entry): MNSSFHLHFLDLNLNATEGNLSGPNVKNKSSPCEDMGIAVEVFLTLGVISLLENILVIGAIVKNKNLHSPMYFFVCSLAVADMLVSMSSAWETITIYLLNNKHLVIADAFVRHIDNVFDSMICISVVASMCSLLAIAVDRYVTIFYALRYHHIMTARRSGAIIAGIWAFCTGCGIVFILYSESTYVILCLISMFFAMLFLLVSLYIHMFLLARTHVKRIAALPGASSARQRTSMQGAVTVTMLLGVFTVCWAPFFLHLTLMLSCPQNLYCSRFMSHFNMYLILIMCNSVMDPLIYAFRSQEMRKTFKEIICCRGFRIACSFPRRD
How it was run: as §1

[7] = biological target: T7, Human neurokinin (NK1) (Homo sapiens, UniProt P25103); assay: Radioligand binding, human neurokinin NK1 membranes, filtration, [125I]-Substance P; details: compound at 10 μM; for A8 radioligand binding inhibition: human neurokinin NK1 membranes
T7 construct: purchased Perkin Elmer Biosignal
T7 sequence (P25103 whole entry): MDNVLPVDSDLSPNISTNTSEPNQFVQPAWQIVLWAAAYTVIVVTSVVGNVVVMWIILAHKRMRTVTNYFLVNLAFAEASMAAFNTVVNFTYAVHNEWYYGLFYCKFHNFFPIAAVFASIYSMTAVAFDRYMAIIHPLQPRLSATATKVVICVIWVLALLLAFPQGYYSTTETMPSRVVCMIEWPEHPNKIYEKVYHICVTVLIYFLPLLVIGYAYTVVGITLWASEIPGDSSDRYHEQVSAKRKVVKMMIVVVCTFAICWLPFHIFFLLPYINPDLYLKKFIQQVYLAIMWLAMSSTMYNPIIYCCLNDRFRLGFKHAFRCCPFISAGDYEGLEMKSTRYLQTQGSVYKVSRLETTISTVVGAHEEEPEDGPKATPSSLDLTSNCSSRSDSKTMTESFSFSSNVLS
How it was run: as §2

[8] = biological target: T8, Human neuropeptide Y (NPY-Y1) (Homo sapiens, UniProt P25929); assay: Radioligand binding, human neuropeptide Y NPY-Y1 membranes, FlashPlate, [125I]-PYY; details: compound at 10 μM; for A9 radioligand binding inhibition: human NPY-Y1 membranes
T8 construct: purchased Perkin Elmer Biosignal
T8 sequence (P25929 1-384): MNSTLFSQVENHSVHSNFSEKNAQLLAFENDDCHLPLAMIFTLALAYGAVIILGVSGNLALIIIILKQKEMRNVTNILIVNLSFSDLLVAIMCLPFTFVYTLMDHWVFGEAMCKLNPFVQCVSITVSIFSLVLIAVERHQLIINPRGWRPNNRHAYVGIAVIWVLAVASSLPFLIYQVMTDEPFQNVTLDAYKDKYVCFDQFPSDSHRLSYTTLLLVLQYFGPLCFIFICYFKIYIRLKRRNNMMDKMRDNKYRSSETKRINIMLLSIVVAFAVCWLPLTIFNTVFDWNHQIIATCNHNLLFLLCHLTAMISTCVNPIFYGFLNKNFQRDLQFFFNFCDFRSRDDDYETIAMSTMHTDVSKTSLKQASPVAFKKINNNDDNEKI
How it was run: as §1

[9] = biological target: T9, Human melanin-concentrating hormone (MCH1) (Homo sapiens, UniProt Q99705); assay: Radioligand binding, human melanin-concentrating hormone MCH1 membranes, FlashPlate, [125I]-S36057; details: compound at 10 μM; for A6 radioligand binding inhibition: human MCH1 membranes
T9 construct: purchased Perkin Elmer Biosignal
T9 sequence (Q99705 whole entry): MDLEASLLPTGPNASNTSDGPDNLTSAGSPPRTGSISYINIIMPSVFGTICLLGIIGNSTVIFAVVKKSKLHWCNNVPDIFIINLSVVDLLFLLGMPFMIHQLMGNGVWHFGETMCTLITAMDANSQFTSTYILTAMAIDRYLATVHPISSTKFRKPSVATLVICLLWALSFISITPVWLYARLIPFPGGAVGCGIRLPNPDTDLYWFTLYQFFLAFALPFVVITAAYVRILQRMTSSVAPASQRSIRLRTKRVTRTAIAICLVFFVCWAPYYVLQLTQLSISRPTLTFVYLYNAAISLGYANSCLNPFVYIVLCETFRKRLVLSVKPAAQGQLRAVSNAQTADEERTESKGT
How it was run: as §1

[10] = biological target: T10, Human Melanocortin (MC4) (Homo sapiens, UniProt P32245); assay: Radioligand binding, human melanocortin MC4 membranes, FlashPlate, [125I]-NDP-αMSH; details: compound at 10 μM; for A4 radioligand binding inhibition: human melanocortin MC4 membranes
T10 construct: purchased Perkin Elmer Biosignal
T10 sequence (P32245 whole entry): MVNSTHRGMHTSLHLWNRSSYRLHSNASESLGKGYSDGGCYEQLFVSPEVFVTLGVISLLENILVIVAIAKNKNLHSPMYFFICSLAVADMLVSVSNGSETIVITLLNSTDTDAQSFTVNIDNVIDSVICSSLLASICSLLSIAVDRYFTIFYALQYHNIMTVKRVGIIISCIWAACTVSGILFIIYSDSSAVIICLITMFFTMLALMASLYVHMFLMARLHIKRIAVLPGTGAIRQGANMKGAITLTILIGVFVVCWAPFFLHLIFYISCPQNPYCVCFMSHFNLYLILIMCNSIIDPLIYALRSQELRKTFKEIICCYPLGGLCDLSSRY
How it was run: as §1

[11] = biological target: T11, Human δ-opioid (DOP) (Homo sapiens, UniProt P41143); assay: Radioligand binding, human δ-opioid (DOP) membranes, FlashPlate, [3H]-Bremazocine; details: compound at 10 μM; for A1 radioligand binding inhibition: human δ-opioid (DOP) membranes
T11 construct: purchased Perkin Elmer Biosignal
T11 sequence (P41143 whole entry): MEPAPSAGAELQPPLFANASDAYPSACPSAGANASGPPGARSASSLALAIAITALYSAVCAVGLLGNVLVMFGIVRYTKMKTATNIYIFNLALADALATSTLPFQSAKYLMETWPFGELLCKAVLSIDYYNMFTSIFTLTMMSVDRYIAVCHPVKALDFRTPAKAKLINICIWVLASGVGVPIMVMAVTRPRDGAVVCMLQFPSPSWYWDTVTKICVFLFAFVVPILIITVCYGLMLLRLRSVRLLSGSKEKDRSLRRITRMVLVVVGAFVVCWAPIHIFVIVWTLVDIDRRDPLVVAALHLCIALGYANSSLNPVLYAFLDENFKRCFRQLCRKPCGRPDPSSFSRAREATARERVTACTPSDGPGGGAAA
How it was run: as §1

T1 sequence (P35372 whole entry): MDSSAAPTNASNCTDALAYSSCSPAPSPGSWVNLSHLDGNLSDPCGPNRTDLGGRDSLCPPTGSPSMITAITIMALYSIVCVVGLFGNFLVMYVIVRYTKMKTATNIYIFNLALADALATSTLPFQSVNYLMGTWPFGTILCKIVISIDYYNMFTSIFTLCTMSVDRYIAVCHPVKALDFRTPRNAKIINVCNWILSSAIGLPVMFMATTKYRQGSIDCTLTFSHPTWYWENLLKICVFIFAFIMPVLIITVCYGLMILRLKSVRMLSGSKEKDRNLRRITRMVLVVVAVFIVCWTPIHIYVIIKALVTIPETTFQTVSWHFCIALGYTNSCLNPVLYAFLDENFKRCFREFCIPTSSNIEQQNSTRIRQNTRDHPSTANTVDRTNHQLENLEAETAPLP

COC[C@H]1OC(OCc2ccc(Cl)cc2)[C@H](NC(=O)CCNC(=N)N)[C@@H](OCc2ccc3ccccc3c2)[C@@H]1O (stereo partly shown) [compound 32]
A7 radioligand binding inhibition [1]: − (“−” indicates less than 50% inhibition at 10 μM) | A2 radioligand binding inhibition [2]: − (“−” indicates less than 50% inhibition at 10 μM) | A11 radioligand binding inhibition [3]: − (“−” indicates less than 50% inhibition at 10 μM) | A3 radioligand binding inhibition [4]: − (“−” indicates less than 50% inhibition at 10 μM) | A10 radioligand binding inhibition [5]: − (“−” indicates less than 50% inhibition at 10 μM) | A5 radioligand binding inhibition [6]: + (“+” indicates greater than 50% inhibition at 10 μM) | A8 radioligand binding inhibition [7]: + (“+” indicates greater than 50% inhibition at 10 μM) | A9 radioligand binding inhibition [8]: − (“−” indicates less than 50% inhibition at 10 μM) | A6 radioligand binding inhibition [9]: − (“−” indicates less than 50% inhibition at 10 μM) | A4 radioligand binding inhibition [10]: − (“−” indicates less than 50% inhibition at 10 μM) | A1 radioligand binding inhibition [11]: + (“+” indicates greater than 50% inhibition at 10 μM)

COC[C@H]1OC(OCc2ccc(-c3ccccc3)cc2)[C@H](NC(=O)CNC(=N)N)[C@@H](OCc2ccc3ccccc3c2)[C@@H]1O (stereo partly shown) [compound 3]
A7 radioligand binding inhibition [1]: − (“−” indicates less than 50% inhibition at 10 μM) | A2 radioligand binding inhibition [2]: − (“−” indicates less than 50% inhibition at 10 μM) | A11 radioligand binding inhibition [3]: − (“−” indicates less than 50% inhibition at 10 μM) | A3 radioligand binding inhibition [4]: − (“−” indicates less than 50% inhibition at 10 μM) | A10 radioligand binding inhibition [5]: − (“−” indicates less than 50% inhibition at 10 μM) | A5 radioligand binding inhibition [6]: + (“+” indicates greater than 50% inhibition at 10 μM) | A8 radioligand binding inhibition [7]: + (“+” indicates greater than 50% inhibition at 10 μM) | A9 radioligand binding inhibition [8]: − (“−” indicates less than 50% inhibition at 10 μM) | A6 radioligand binding inhibition [9]: + (“+” indicates greater than 50% inhibition at 10 μM) | A4 radioligand binding inhibition [10]: − (“−” indicates less than 50% inhibition at 10 μM) | A1 radioligand binding inhibition [11]: − (“−” indicates less than 50% inhibition at 10 μM)

CSC1O[C@H](COCc2ccc3ccccc3c2)[C@@H](O)[C@@H](OCc2ccc(-c3ccccc3)cc2)[C@H]1NC(=O)CN (stereo partly shown) [compound 295]
A7: inhibition of radioligand binding, human μ-opioid (MOP) ([1]; [3H]-Naloxone): − (“−” indicates less than 50% inhibition at 10 μM) | A2: inhibition of radioligand binding, human κ-opioid (KOP) ([2]; [3H]-Diprenorphine): − (“−” indicates less than 50% inhibition at 10 μM) | A11: inhibition of radioligand binding, mouse urotensin (mUR2) ([3]; [125I]-Urotensin II): − (“−” indicates less than 50% inhibition at 10 μM) | A3: inhibition of radioligand binding, human melanocortin (MC3) ([4]; [125I]-NDP-αMSH): − (“−” indicates less than 50% inhibition at 10 μM) | A10: inhibition of radioligand binding, human opioid (ORL1) ([5]; [125I]-Nociceptin): − (“−” indicates less than 50% inhibition at 10 μM) | A5: inhibition of radioligand binding, human melanocortin (MC5) ([6]; [125I]-NDP-αMSH): − (“−” indicates less than 50% inhibition at 10 μM) | A8: inhibition of radioligand binding, human neurokinin (NK1) ([7]; [125I]-Substance P): + (“+” indicates greater than 50% inhibition at 10 μM) | A9: inhibition of radioligand binding, human neuropeptide Y (NPY-Y1) ([8]; [125I]-PYY): − (“−” indicates less than 50% inhibition at 10 μM) | A6: inhibition of radioligand binding, human melanin-concentrating hormone (MCH1) ([9]; [125I]-S36057): − (“−” indicates less than 50% inhibition at 10 μM) | A4: inhibition of radioligand binding, human melanocortin (MC4) ([10]; [125I]-NDP-αMSH): − (“−” indicates less than 50% inhibition at 10 μM) | A1: inhibition of radioligand binding, human δ-opioid (DOP) ([11]; [3H]-Bremazocine): − (“−” indicates less than 50% inhibition at 10 μM)

COCC1OC(OCc2ccccc2)C(NC(=O)CNC(=N)N)C(OCc2ccc3ccccc3c2)C1O (stereo not shown) [compound 189]
A7: inhibition of radioligand binding ([1]; [3H]-Naloxone, FlashPlate): − (“−” indicates less than 50% inhibition at 10 μM) | A2: inhibition of radioligand binding ([2]; [3H]-Diprenorphine, filtration): − (“−” indicates less than 50% inhibition at 10 μM) | A11: inhibition of radioligand binding ([3]; [125I]-Urotensin II, FlashPlate): − (“−” indicates less than 50% inhibition at 10 μM) | A3: inhibition of radioligand binding ([4]; [125I]-NDP-αMSH, FlashPlate): + (“+” indicates greater than 50% inhibition at 10 μM) | A10: inhibition of radioligand binding ([5]; [125I]-Nociceptin, FlashPlate): − (“−” indicates less than 50% inhibition at 10 μM) | A5: inhibition of radioligand binding ([6]; [125I]-NDP-αMSH, FlashPlate): + (“+” indicates greater than 50% inhibition at 10 μM) | A8: inhibition of radioligand binding ([7]; [125I]-Substance P, filtration): + (“+” indicates greater than 50% inhibition at 10 μM) | A9: inhibition of radioligand binding ([8]; [125I]-PYY, FlashPlate): − (“−” indicates less than 50% inhibition at 10 μM) | A6: inhibition of radioligand binding ([9]; [125I]-S36057, FlashPlate): + (“+” indicates greater than 50% inhibition at 10 μM) | A4: inhibition of radioligand binding ([10]; [125I]-NDP-αMSH, FlashPlate): + (“+” indicates greater than 50% inhibition at 10 μM) | A1: inhibition of radioligand binding ([11]; [3H]-Bremazocine, FlashPlate): − (“−” indicates less than 50% inhibition at 10 μM)

COC[C@H]1OC(OCc2cccc(O)c2)[C@H](NC(=O)CCCN)[C@@H](OCc2ccc(-c3ccccc3)cc2)[C@@H]1O (stereo partly shown) [compound 143]
A7 radioligand binding, percentage inhibition ([1]; [3H]-Naloxone): + (“+” indicates greater than 50% inhibition at 10 μM) | A2 radioligand binding, percentage inhibition ([2]; [3H]-Diprenorphine): − (“−” indicates less than 50% inhibition at 10 μM) | A11 radioligand binding, percentage inhibition ([3]; [125I]-Urotensin II): − (“−” indicates less than 50% inhibition at 10 μM) | A3 radioligand binding, percentage inhibition ([4]; [125I]-NDP-αMSH): − (“−” indicates less than 50% inhibition at 10 μM) | A10 radioligand binding, percentage inhibition ([5]; [125I]-Nociceptin): − (“−” indicates less than 50% inhibition at 10 μM) | A5 radioligand binding, percentage inhibition ([6]; [125I]-NDP-αMSH): − (“−” indicates less than 50% inhibition at 10 μM) | A8 radioligand binding, percentage inhibition ([7]; [125I]-Substance P): + (“+” indicates greater than 50% inhibition at 10 μM) | A9 radioligand binding, percentage inhibition ([8]; [125I]-PYY): − (“−” indicates less than 50% inhibition at 10 μM) | A6 radioligand binding, percentage inhibition ([9]; [125I]-S36057): − (“−” indicates less than 50% inhibition at 10 μM) | A4 radioligand binding, percentage inhibition ([10]; [125I]-NDP-αMSH): − (“−” indicates less than 50% inhibition at 10 μM) | A1 radioligand binding, percentage inhibition ([11]; [3H]-Bremazocine): − (“−” indicates less than 50% inhibition at 10 μM)
